One assay relates to MCF7. Kind of assay: Antiproliferative activity against human MCF7 cells assessed as inhibition of cell growth measured after 72 hrs by MTT assay. It is filed as functional, cell-based. Particulars: MCF7, 72 h.
Assay [1] concerns MDA-MB-231. Kind of assay: Antiproliferative activity against human MDA-MB-231 cells assessed as inhibition of cell growth measured after 72 hrs by MTT assay. It is filed as functional, cell-based. Particulars: MDA-MB-231, 72 h. In general terms: Tetrazolium assays rely on reduction of a dye to a coloured formazan, in cell work by metabolically active cells.
The subject of assay [2] is MDA-MB-231. Kind of assay: Antiproliferative activity against human drug tolerant MDA-MB-231/lapatinib cells assessed as inhibition of cell growth in measured after 72 hrs by MTT assay. It is filed as functional, cell-based. The following applies: MDA-MB-231, 72 h.
The next assay concerns HUVEC. Briefly: Antiproliferative activity against human HUVEC cells assessed as inhibition of cell growth in measured after 72 hrs by MTT assay. It is filed as cell-based.
A short description of assay [3]: Resistant factor, ratio of IC50 for antiproliferative activity against drug-tolerant human MDA-MB-231 cells to IC50 for human MDA-MB-231 cells. Format: functional.
The target of assay [4] is T1, Aldehyde dehydrogenase 1A1 (Homo sapiens, UniProt P00352).
T1 sequence (P00352 whole entry): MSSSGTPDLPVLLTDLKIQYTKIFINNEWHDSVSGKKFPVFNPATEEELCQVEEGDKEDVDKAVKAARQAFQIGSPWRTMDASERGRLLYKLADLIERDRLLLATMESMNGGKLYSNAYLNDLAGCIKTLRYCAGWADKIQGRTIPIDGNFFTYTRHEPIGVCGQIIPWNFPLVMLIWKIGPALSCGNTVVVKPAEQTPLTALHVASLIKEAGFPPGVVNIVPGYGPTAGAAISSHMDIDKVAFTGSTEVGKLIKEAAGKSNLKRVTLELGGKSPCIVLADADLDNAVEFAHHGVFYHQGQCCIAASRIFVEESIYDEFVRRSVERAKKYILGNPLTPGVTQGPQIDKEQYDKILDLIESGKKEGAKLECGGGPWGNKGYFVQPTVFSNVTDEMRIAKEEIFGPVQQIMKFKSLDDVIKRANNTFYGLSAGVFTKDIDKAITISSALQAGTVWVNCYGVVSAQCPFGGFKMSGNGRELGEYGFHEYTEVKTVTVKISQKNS
Kind of assay: Inhibition of ALDH1A1 in human drug-tolerant MDA-MB-231/lapatinib cells assessed as after 24 hrs.

Assay [5] concerns MDA-MB-231. Briefly: Antiproliferative activity against drug-tolerant human MDA-MB-231/lapatinib cells assessed as CD44-positive cells measured after 24 hrs by MTT assay. Format: functional, cell-based. Particulars: MDA-MB-231, 24 h.
Assay [6] has as its system MDA-MB-231. Kind of assay: Antiproliferative activity against drug-tolerant human MDA-MB-231/lapatinib cells assessed as CD44+/CD24- cells measured at 20 uM after 24 hrs by MTT assay. Format: functional.
Assay [7] concerns MDA-MB-231. Kind of assay: Inhibition of cell migration in human drug-tolerant MDA-MB-231/lapatinib cells at 20 uM. It is filed as functional.
Assay [8] concerns MDA-MB-231. Kind of assay: Inhibition of Wnt/beta-Catenin signaling in drug-tolerant human MDA-MB-231/lapatinib cells assessed as reduction in beta-catenin level at 20 uM incubated for 24 hrs by Western blot analysis.
Assay [9] has as its system MDA-MB-231. Kind of assay: Inhibition of Wnt/beta-Catenin signaling in drug-tolerant human MDA-MB-231/lapatinib cells assessed as reduction in p-GSK3beta level at 20 uM incubated for 24 hrs by Western blot analysis. For orientation: In western blotting, separated proteins are transferred to a membrane and probed.

Active and inactive are the calls of the source. The rule behind the calls is not given here.

Regarding `CS(=O)(=O)CCN(Cc1ccc(-c2ccc3ncnc(Nc4ccc(OCc5cccc(F)c5)c(Cl)c4)c3c2)o1)C(=O)CCC(=O)OCCN1CCN(CCCN2c3ccccc3Sc3ccc(C(F)(F)F)cc32)CC1`, the IC50 with MCF7 was 6.38 µM; with MDA-MB-231 [1] it was 2.98 µM; with MDA-MB-231 [2], 3.42 µM; in the assay on HUVEC, 39.6 µM. Also, the “Ratio IC50” value in [3] is on record as 1.17.

For the compound `OCCN1CCN(CCCN2c3ccccc3Sc3ccc(Cl)cc32)CC1` [PERPHENAZINE], the IC50 turned out to be 35.8 µM with MCF7; 30.4 µM with MDA-MB-231 [1]; 31.8 µM with MDA-MB-231 [2]; 97.8 µM in the assay on HUVEC; 0.524 µM in assay [4]. Further, the “Ratio IC50” value in [3] was 1.05.

Consider `CC(=O)c1cc2c(o1)C(=O)c1ccccc1C2=O` [NAPABUCASIN], for which the IC50 with MCF7 amounted to 11.4 µM; in the assay with MDA-MB-231 [1] it was 11 µM; with MDA-MB-231 [2], 9.68 µM; in the assay with HUVEC, 41.3 µM; in [4], 0.425 µM. Moreover, the “Ratio IC50” value in assay [3] is listed as 0.88.

Regarding `CS(=O)(=O)CCN(Cc1ccc(-c2ccc3ncnc(Nc4ccc(OCc5cccc(F)c5)c(Cl)c4)c3c2)o1)C(=O)CCCC(=O)OCCN1CCN(CCCN2c3ccccc3Sc3ccc(Cl)cc32)CC1`, the IC50 in the assay on MCF7 amounted to 7.38 µM; with MDA-MB-231 [1], 4.51 µM; with MDA-MB-231 [2], 5.74 µM; in the assay on HUVEC, 100 µM. The “Ratio IC50” value in [3] amounted to 1.27.

On to `OCCN1CCN(CCCN2c3ccccc3Sc3ccc(C(F)(F)F)cc32)CC1` [FLUPHENAZINE], for which the IC50 in the assay on MCF7 amounted to 24.6 µM; in the assay on MDA-MB-231 [1], 16.7 µM; with MDA-MB-231 [2], 18.6 µM; in the assay on HUVEC it was 38 µM. Besides, the “Ratio IC50” value in assay [3] is on record as 0.86.

Turning to `CC(OC(=O)CCC(=O)N(CCS(C)(=O)=O)Cc1ccc(-c2ccc3ncnc(Nc4ccc(OCc5cccc(F)c5)c(Cl)c4)c3c2)o1)c1cc2c(o1)C(=O)c1ccccc1C2=O` (stereo unspecified), the IC50 in the assay on MCF7 was 3.97 µM; in the assay with MDA-MB-231 [1], 3.61 µM; with MDA-MB-231 [2], 5.82 µM; in the assay on HUVEC, 56.6 µM. In addition, the “Ratio IC50” value in [3] is 1.62.

As for `CS(=O)(=O)CCN(Cc1ccc(-c2ccc3ncnc(Nc4ccc(OCc5cccc(F)c5)c(Cl)c4)c3c2)o1)C(=O)CCCC(=O)OCCN1CCN(CCCN2c3ccccc3Sc3ccc(C(F)(F)F)cc32)CC1`, the 50% inhibitory concentration (IC50) with MCF7 was determined as 9.16 µM; in the assay on MDA-MB-231 [1], 6.58 µM; in the assay on MDA-MB-231 [2], 7.12 µM; in the assay with HUVEC, 43.4 µM. Besides, the “Ratio IC50” value in assay [3] turned out to be 1.08.

On to `CS(=O)(=O)CCNCc1ccc(-c2ccc3ncnc(Nc4ccc(OCc5cccc(F)c5)c(Cl)c4)c3c2)o1` [LAPATINIB], for which the IC50 with MCF7 was 12.6 µM; in the assay on MDA-MB-231 [1], 5.86 µM; in the assay with MDA-MB-231 [2] it was 29.4 µM; in the assay with HUVEC, 47.3 µM; in the assay with MDA-MB-231 [5], 30.8 µM. Besides, the inhibition at 20 µM is 15.7% in the assay with MDA-MB-231 [6] and 52.6% with MDA-MB-231 [7]. The inhibition entry with MDA-MB-231 [8] and in the assay on MDA-MB-231 [9] was “Active” throughout.

As a reminder, the IC50 is the concentration that gives 50% inhibition. The term inhibition denotes the change of the read-out against control, counted positive when it falls.

The values above are taken from ChEMBL document CHEMBL5030535, “Conjugates Derived from Lapatinib Derivatives with Cancer Cell Stemness Inhibitors Effectively Reversed Drug Resistance in Triple-Negative Breast Cancer” (J Med Chem, 2021).
